The values that follow come from patent US12419937B2, “High concentration alpha-glucosidase compositions for the treatment of Pompe disease” (Amicus Therapeutics, Inc., priority 2012, dated 2025).

The target in data set [1] is T1, recombinant human GAA (Myozyme®) (Homo sapiens, UniProt P10253).
T1 construct: purchased Genzyme Corp
As to the kind of experiment: SYPRO Orange thermal stability assay (heat-induced denaturation). It is filed as physicochemical. To be noted: for stability of Myozyme® (heat required to denature) on addition of the ASSC: pH 7.4, 100 μM 1-DNJ-HCl, vs Myozyme® alone. An excerpt: The thermal stability assay utilizes heat to induce protein denaturation, which is monitored using a SYPRO Orange dye that fluoresces upon binding to hydrophobic amino acids (which are not exposed in a folded protein).
FIG. 5 depicts the results of a thermal stability assay that utilizes heat to induce protein denaturation, which is monitored using a SYPRO Orange dye that fluoresces upon binding to hydrophobic amino acids (which are not exposed in a folded protein).
Denaturation is monitored using a SYPRO Orange dye that fluoresces upon binding to hydrophobic amino acids (which are not exposed in a folded protein).
The thermal stability was performed at pH 7.4 for two formulations, which corresponds to the pH of the ER.

The test system of data set [2] is GAA KO mice. As to the kind of experiment: Myozyme® tissue uptake in GAA KO mice with and without oral 1-DNJ-HCl (Example 3). It counts as in vivo, mouse. To be noted: 10, 100, 1000 mg/kg oral 1-DNJ-HCl with 10 mg/kg Myozyme® IV weekly; up to 7 days post injection. The procedure:
Five groups of GAA KO mice were administered one of the following formulations: […]
(2) 10 mg/kg of Myozyme® IV once per week, for up to three weeks
Tissue homogenates were generated for analysis. Enzymatic activity as determined using a 4-MUG fluorogenic substrate assay.

The subject of data set [3] is GAA KO mice. Nature of the data set: rhGAA activity in heart and diaphragm of GAA KO mouse (Example 6). It is filed as in vivo. The conditions noted are these: co-administered with 1-DNJ-HCl vs ERT monotherapy. The procedure:
Heart and Diaphragm tissue homogenates were harvested and rhGAA activity was measured using the fluorogenic substrate (4-MUG).

A further data set concerns the target T2, rhGAA (e.g., Myozyme®) (Homo sapiens, UniProt P10253).
T2 construct: purchased Genzyme Corp; host or cells: Chinese hamster ovary cell line
As to the kind of experiment: rhGAA enzyme inactivation in citrate anti-coagulated whole blood at 37° C. (Examples 7, 8). It is filed as in vitro ADME. The procedure: Aliquots were collected at 0, 2, 4, 8 and 24 hrs and centrifuged to obtain plasma. These plasma samples were then diluted in potassium acetate buffer (pH 4.0) and assayed for GAA activity using the 4-methylumbeliferyl-α-glucose (4-MUG) fluorogenic substrate. The measured GAA activity for individual samples at each time point was normalized to the 0 hr and expressed as % of initial activity. Data from 4 independent experiments were analyzed to obtain the mean (and standard deviation) and plotted versus time to assess the loss of enzyme activity over this time course.
Aliquots were collected at 0, 3 and 6 hrs and centrifuged to obtain plasma. These plasma samples were then diluted in potassium acetate buffer (pH 4.0) and assayed for GAA activity using the 4-methylumbeliferyl-α-glucose (4-MUG) fluorogenic substrate. The measured GAA activity for individual samples at each time point was normalized to the 0 hr and expressed as % of initial activity.
Moreover, since Myozyme® has a long plasma half-life (reported to be more than 3 hrs), there is a high probability that an appreciable amount of the enzyme remains in the circulation many hours after the infusion that would also be prone to inactivation.
Based on human plasma PK data, these concentrations are readily obtainable in the clinic.

For data set [4], the system named is cell lines derived from late-onset Pompe patients with the IVS 1 (−13 T>G) splicing defect. As to the kind of experiment: GAA levels in cell lines derived from late-onset Pompe patients. It is filed as cell-based, human. The conditions noted are these: alone and in combination with hrGAA.
The conditions of data set [5]: rat, in vivo, po, 30 mg/kg.
Data set [6] deals with T1, recombinant human GAA (Myozyme®). As to the kind of experiment: Residual GAA enzyme activity in buffer at 37° C. (4-MU-α-glucose). It counts as biochemical. To be noted: 50 μM 1-DNJ, plasma pH (7.4), 24 hours. As to the method:
GAA activity was evaluated to assess the ability of an ASSC of GAA to prolong the activity of the rhGAA over time. Myozyme® (45 nM) was incubated in pH 7.4 or pH 5.2 buffer with or without 50 μM 1-DNJ at 37° C. over 24 hours. Samples were assayed for GAA enzyme activity using 4-MU-α-glucose at 0, 3, 6 and 24 hours and the residual GAA activity was expressed as % of initial activity.
Residual GAA activity was determined for four formulations:
Activity was measured, based on the % of initial activity (t=0) over 24 hours. Samples were assayed for GAA enzyme activity based on the hydrolysis of the fluorogenic substrate 4-MU-α-glucose at 0, 3, 6 and 24 hours. The GAA activity was expressed as % of initial activity, i.e. residual activity.

The target is the same in data set [7]. As to the kind of experiment: SYPRO Orange protein folding monitored over 24 hours at 37° C. It counts as physicochemical. The conditions noted are these: 100 μM 1-DNJ-HCl, plasma pH. As to the method: FIG. 2B depicts a parallel SYPRO Orange thermal stability experiment to determine if the loss of enzyme activity shown in FIG. 2A, particularly the loss of Myozyme® activity at ER pH (7.4), correlates with protein unfolding and denaturation.
In order to determine if loss of initial enzyme activity is correlated to failure to maintain a proper conformation, a SYPRO Orange thermal stability experiment was performed on the samples above as generally described in Example 1. […] Based on this experiment, the % of GAA folded was estimated and plotted in FIG. 2B.

The nature of data set [8]: Aggregation of 25 mg/mL Myozyme® (Example 10). It counts as physicochemical. To be noted: 1 mM DNJ with 25 mg/mL Myozyme®; pH 7.4; 37° C.; 4 weeks; listed as DNJ. As to the method:
Aggregation was assessed after a 4 week incubation period.
A liquid formulation comprising DNJ and GAA was prepared by dissolving DNJ in water to achieve a concentration of 10 mM DNJ. GAA was reconstituted in 1.8 ml water, and dialyzed overnight in phosphate buffered-saline (pH 7.4). […] of DNJ (10 mM) was then be added to 400 microliters of GAA, such that the GAA was at a concentration of 25 mg/ml.
25 mg/mL Myozyme® was incubated with or without 1 mM DNJ in phosphate-buffered saline at pH 7.4. Aggregation of Myozyme® was assessed after incubation for 4 weeks at 37° C.

A short description of data set [9]: Circulating half-life and quadriceps uptake of Myozyme® in rats, tail vein (Example 11). The conditions noted are these: 30 mg/kg DNJ with 10 mg/kg Myozyme® via tail vein. It counts as in vivo, Sprague-Dawley rats. The procedure: Sprague-Dawley rats were administered 10 mg/kg Myozyme® or 30 mg/kg DNJ mixed with 10 mg/kg Myozyme® via tail vein. GAA activity was measured in plasma and quadriceps tissue. Baseline GAA activity in quadriceps was subtracted (˜16 nmol/mg protein/hr) from the measured GAA following GAA or DNJ and GAA administration.

A short description of data set [10]: Circulating rhGAA after subcutaneous Myozyme® with or without DNJ (FIG. 14). It is filed as in vivo. To be noted: DNJ co-formulated with 20 mg/kg Myozyme® vs 20 mg/kg Myozyme® without DNJ.

Molecules are shown by their SMILES. Entries after “also recorded” stand apart in the source; their conditions may differ. Structures can show the parent of a compound that is named as a salt.

Turning to `OC[C@H]1NC[C@H](O)[C@@H](O)[C@@H]1O` [1-DNJ-HCl, 1-deoxynojirimycin hydrochloride], in data set [1] (1, 10, 100 μM 1-DNJ-HCl, dose-dependent), the “GAA thermostability (GAA's melting temperature)” value is given as “increases GAA thermostability”. Also, the “stability of Myozyme® (heat required to denature) on addition of the ASSC” value in data set [1] (hydrochloride) is “required significantly more heat to denature”. For the same compound, the “Myozyme® tissue uptake (as a measure of GAA activity), effect of coadministration” value in the data set on GAA KO mice [2] was “dose-dependent increase in Myozyme® uptake”. For the same compound, in the data set on GAA KO mice [3], the “rhGAA uptake in the heart and diaphragm” value was “increased”. Moreover, on rhGAA (e.g., Myozyme®) (2.5 μM 1-DNJ-HCl, 6-hr time course), the “loss of rhGAA activity in whole blood” value was ~20%. Further, at rhGAA (e.g., Myozyme®) (50 μM 1-DNJ-HCl, Myozyme® 0.5 μM, up to 24 hrs, hydrochloride), the “effect on rhGAA enzyme inactivation in whole blood” value was “stabilized rhGAA and prevented enzyme inactivation; also recorded: prevents rhGAA enzyme inactivation”. The “stabilizing rhGAA in whole blood, concentration comparison” value at rhGAA (e.g., Myozyme®) (50 and 100 μM 1-DNJ-HCl, 6 hrs) is “best for stabilizing rhGAA and preventing enzyme inactivation”. The GAA levels entry in data set [4] is given as “increased GAA levels”. Also, the “increase of plasma half-life of rhGAA” value in data set [5] is on record as 2 fold.
On to `OC[C@H]1NC[C@H](O)[C@@H](O)[C@@H]1O` [1-DNJ, 1-deoxynojirimycin], for which the “stability of Myozyme® (heat required to denature) on addition of the ASSC” value in [1] is given as “significantly increased”. Also, the “effect on loss of GAA enzyme activity” value in [6] is on record as “ameliorates the loss of GAA enzyme activity”. Besides, in data set [7], the “effect on GAA denaturation and loss of enzyme activity” value was “can prevent GAA denaturation and loss of enzyme activity”. In addition, in data set [8], the “aggregation of Myozyme®” value was “reduces aggregation”. Besides, the “tissue uptake of Myozyme® in quadriceps” value in data set [9] is recorded as “increased”. The “circulating levels of rhGAA” value in [10] is recorded as “increased the circulating levels of rhGAA”.
